Measured values from patent US9533978B2 (AstraZeneca AB, priority 2009, dated 2017).
Counter-ions that a name gives are not always drawn.

Molecular target: T1, Recombinant human TLR7 (Homo sapiens, UniProt Q9NYK1)
T1 construct: expressed in transfected cells; host or cells: HEK293 cell line stably expressing the pNiFty2-SEAP reporter plasmid; TLR7 in vector pUNO, blasticidin selection
T1 sequence (Q9NYK1 27-1049): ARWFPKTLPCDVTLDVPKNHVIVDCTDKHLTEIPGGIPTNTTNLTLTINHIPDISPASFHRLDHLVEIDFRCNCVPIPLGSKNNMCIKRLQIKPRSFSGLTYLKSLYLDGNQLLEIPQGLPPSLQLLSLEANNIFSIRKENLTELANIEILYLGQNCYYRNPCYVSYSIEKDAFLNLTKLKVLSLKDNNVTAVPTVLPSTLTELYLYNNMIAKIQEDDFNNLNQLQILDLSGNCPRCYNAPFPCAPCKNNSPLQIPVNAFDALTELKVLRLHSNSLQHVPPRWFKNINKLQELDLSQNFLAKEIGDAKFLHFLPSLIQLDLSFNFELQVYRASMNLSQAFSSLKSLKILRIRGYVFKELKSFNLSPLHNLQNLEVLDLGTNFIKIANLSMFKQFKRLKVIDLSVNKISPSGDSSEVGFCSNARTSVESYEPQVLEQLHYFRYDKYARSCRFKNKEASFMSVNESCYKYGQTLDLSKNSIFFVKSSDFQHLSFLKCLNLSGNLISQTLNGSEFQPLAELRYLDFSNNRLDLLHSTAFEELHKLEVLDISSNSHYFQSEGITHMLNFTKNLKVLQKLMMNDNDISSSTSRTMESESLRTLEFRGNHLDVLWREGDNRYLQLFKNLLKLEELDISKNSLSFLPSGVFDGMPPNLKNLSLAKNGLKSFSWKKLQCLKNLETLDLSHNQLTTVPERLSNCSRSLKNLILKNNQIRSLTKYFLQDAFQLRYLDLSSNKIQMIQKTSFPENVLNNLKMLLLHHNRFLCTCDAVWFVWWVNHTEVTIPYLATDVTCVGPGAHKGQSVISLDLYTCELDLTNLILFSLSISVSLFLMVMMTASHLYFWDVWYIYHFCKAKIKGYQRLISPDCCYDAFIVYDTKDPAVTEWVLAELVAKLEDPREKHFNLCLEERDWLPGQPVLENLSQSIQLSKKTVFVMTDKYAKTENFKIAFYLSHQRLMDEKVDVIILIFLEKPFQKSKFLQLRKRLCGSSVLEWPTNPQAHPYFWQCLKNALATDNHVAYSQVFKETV
Test: Human TLR7 assay (HEK293 SEAP reporter)
Format: cell-based
Settings: degree of TLR7 activation; SEAP induction in HEK293 cells stably expressing recombinant human TLR7 and pNiFty2-SEAP reporter, overnight incubation at 37° C., 0.1% (v/v) DMSO
Protocol: The ability of compounds to activate TLR7 in vitro was assessed using the human TLR7 assay described below.
Recombinant human TLR7 was stably expressed in a HEK293 cell line already stably expressing the pNiFty2-SEAP reporter plasmid; integration of the reporter gene was maintained by selection with the antibiotic zeocin. The most common variant sequence of human TLR7 (represented by the EMBL sequence AF240467) was cloned into the mammalian cell expression vector pUNO and transfected into this reporter cell-line. Transfectants with stable expression were selected using the antibiotic blasticidin. In this reporter cell-line, expression of secreted alkaline phosphatase (SEAP) is controlled by an NFkB/ELAM-1 composite promoter comprising five NFkB sites combined with the proximal ELAM-1 promoter. TLR signaling leads to the translocation of NFkB and activation of the promoter results in expression of the SEAP gene. TLR7-specific activation was assessed by determining the level of SEAP produced following overnight incubation of the cells at 37° C. with the standard compound in the presence of 0.1% (v/v) dimethylsulfoxide (DMSO). Concentration dependent induction of SEAP production by compounds was expressed as the concentration of compound which produced half of the maximal level of SEAP induction for that compound (EC50).

Compound	EC50 [nM]	pEC50
CCCCCNc1nc(N)nc(C)c1Cc1ccc(OCCCO)cc1 [Example 8, 3-(4-((2-Amino-4-methyl-6-(pentylamino)pyrimidin-5-yl)methyl)-phenoxy)propan-1-ol]	501	–
CCCCCNc1nc(N)nc(C)c1Cc1cc(C(=O)OC)ccc1OC [Example 16, Methyl 3-((2-amino-4-methyl-6-(pentylamino)pyrimidin-5-yl)methyl)-4-methoxybenzoate]	50.1	–
CCC[C@@H](CO)Nc1nc(N)nc(C)c1Cc1ccc(C(=O)OC)cc1OC [Example 13, (S)-Methyl 4-((2-amino-4-(1-hydroxypentan-2-ylamino)-6-methyl-pyrimidin-5-yl)methyl)-3-methoxybenzoate]	100	–
CCCCCNc1nc(N)nc(C)c1Cc1cccc(OCCN2CCCCC2)c1 [Example 26, 6-Methyl-N^4-pentyl-5-(3-(2-(piperidin-1-yl)ethoxy)benzyl)pyrimidine-2,4-diamine]	631	–
CCCCCNc1nc(N)nc(C)c1Cc1cccc(OCCN(C)C)c1 [Example 27, 5-(3-(2-(Dimethylamino)ethoxy)benzyl)-6-methyl-N^4-pentylpyrimidine-2,4-diamine]	398	–
CCCC[C@@H](CCO)Nc1nc(N)nc(C)c1Cc1ccc(C(=O)OC)cc1OC [Example 14, (S)-Methyl 4-((2-amino-4-(1-hydroxyheptan-3-ylamino)-6-methyl-pyrimidin-5-yl)methyl)-3-methoxybenzoate]	10	–
COC(=O)Cc1cccc([C@@H](CCO)Nc2nc(N)nc(C)c2Cc2ccc(OCCCN(C)C)cc2)c1 [Example 34, (R)-Methyl 2-(3-(1-(2-amino-5-(4-(3-(dimethylamino)propoxy)benzyl)-6-methylpyrimidin-4-ylamino)-3-hydroxypropyl)phenyl)acetate]	2000	–
CCCCCNc1nc(N)nc(C)c1Cc1cccc(OC)c1 [Example 23, 5-(3-Methoxybenzyl)-6-methyl-N4-pentylpyrimidine-2,4-diamine]	2510	–
CCCCCNc1nc(N)nc(C)c1Cc1ccc(OCCN2CCCCC2)cc1 [Example 5, 6-Methyl-N^4-pentyl-5-(4-(2-(piperidin-1-yl)ethoxy)benzyl)pyrimidine-2,4-diamine]	126	–
CCCCCNc1nc(N)nc(C)c1Cc1cccc(O)c1 [Example 24, 3-((2-Amino-4-methyl-6-(pentylamino)pyrimidin-5-yl)methyl)phenol]	5010	–
5-(4-(2-(Dimethylamino)ethoxy)benzyl)-6-methyl-N-pentylpyrimidine-2,4-diamine [Example 3]	–	7.2
CCCCCNc1nc(N)nc(C)c1Cc1ccccc1OCCCN(C)C [Example 22]	1260	–
CCCCCNc1nc(N)nc(C)c1Cc1cc(C(=O)OC)ccc1F [Example 17, Methyl 3-((2-amino-4-methyl-6-(pentylamino)pyrimidin-5-yl)methyl)-4-fluorobenzoate]	3160	–
CCCCCNc1nc(N)nc(C)c1Cc1ccc(OCCCN(C)C)cc1OC [Example 11, 5-(4-(3-(Dimethylamino)propoxy)-2-methoxybenzyl)-6-methyl-N^4-pentylpyrimidine-2,4-diamine]	2.51	–
CCCCCNc1nc(N)nc(C)c1Cc1ccc(OC)cc1 [Example 1, 5-(4-Methoxybenzyl)-6-methyl-N^4-pentylpyrimidine-2,4-diamine]	2000	–
CCCCCNc1nc(N)nc(C)c1Cc1ccc(C(=O)OC)cc1F [Example 18, Methyl 4-((2-amino-4-methyl-6-(pentylamino)pyrimidin-5-yl)methyl)-3-fluorobenzoate]	2000	–
CCCCCNc1nc(N)nc(C)c1Cc1ccc(O)cc1 [Example 2, 4-(2-Amino-4-methyl-6-pentylamino-pyrimidin-5-ylmethyl)-phenol]	1260	–

Compound	EC50 [nM]	pEC50
CCC[C@@H](CO)Nc1nc(N)nc(C)c1Cc1ccc(C(=O)OCCCCN(C)C)cc1OC [Example 15, (S)-4-(Dimethylamino)butyl 4-((2-amino-4-(1-hydroxypentan-2-yl-amino)-6-methylpyrimidin-5-yl)methyl)-3-methoxybenzoate benzenesulfonate salt]	126	–
CCC[C@@H](CO)Nc1nc(N)nc(C)c1Cc1ccc(CO)cc1OC [Example 40, (S)-2-(2-Amino-5-(4-(hydroxymethyl)-2-methoxybenzyl)-6-methyl-pyrimidin-4-ylamino)pentan-1-ol]	20	–
CCCCCNc1nc(N)nc(C)c1Cc1ccc(OCCCN2CCOCC2)cc1OC [Example 37, 5-(2-Methoxy-4-(3-morpholinopropoxy)benzyl)-6-methyl-N^4-pentylpyrimidine-2,4-diamine]	7.94	–
CCCCCNc1nc(N)nc(C)c1Cc1ccccc1O [Example 20, 2-((2-Amino-4-methyl-6-(pentylamino)pyrimidin-5-yl)methyl)phenol]	126	–
CCCCCNc1nc(N)nc(C)c1Cc1ccc(OCCCN2CCCC2)cc1 [Example 9, 6-Methyl-N^4-pentyl-5-(4-(3-(pyrrolidin-1-yl)propoxy)benzyl)pyrimidine-2,4-diamine]	63.1	–
CCCCCNc1nc(N)nc(C)c1Cc1cccc(CCCN(C)C)c1 [Example 32, 5-(3-(3-(Dimethylamino)propyl)benzyl)-6-methyl-N^4-pentylpyrimidine-2,4-diamine]	251	–
CCCCCNc1nc(N)nc(C)c1Cc1ccccc1OCC [Example 21, 5-(2-Ethoxybenzyl)-6-methyl-N^4-pentylpyrimidine-2,4-diamine]	316	–
CCCCCNc1nc(N)nc(C)c1Cc1ccc(OCCN2CCCC2)cc1 [Example 6, 6-Methyl-N^4-pentyl-5-(4-(2-(pyrrolidin-1-yl)ethoxy)benzyl)pyrimidine-2,4-diamine]	100	–
CCCCCNc1nc(N)nc(C)c1Cc1ccc(OCCCN2CCN(C)CC2)cc1OC [Example 38, 5-(2-Methoxy-4-(3-(4-methylpiperazin-1-yl)propoxy)benzyl)-6-methyl-N^4-pentylpyrimidine-2,4-diamine]	6.31	–
CCCCCNc1nc(N)nc(C)c1Cc1ccc(OCCCN2CCN(C)CC2)cc1 [Example 10, 6-Methyl-5-(4-(3-(4-methylpiperazin-1-yl)propoxy)benzyl)-V-pentylpyrimidine-2,4-diamine]	79.4	–
CCCCCNc1nc(N)nc(C)c1Cc1ccc(C(=O)OC)cc1OC [Example 12, Methyl 4-((2-amino-4-methyl-6-(pentylamino)pyrimidin-5-yl)methyl)-3-methoxybenzoate]	63.1	–
CCCCCNc1nc(N)nc(C)c1Cc1ccccc1OC [Example 19, 5-(2-Methoxybenzyl)-6-methyl-N4-pentylpyrimidine-2,4-diamine]	63.1	–
CCCCCNc1nc(N)nc(C)c1Cc1ccc(OCCCN(C)C)cc1C [Example 33, 5-(4-(3-(Dimethylamino)propoxy)-2-methylbenzyl)-6-methyl-N^4-pentylpyrimidine-2,4-diamine]	251	–
CCCCCNc1nc(N)nc(C)c1Cc1ccc(CCCCN(C)C)cc1OC [Example 39, 5-(4-(4-(Dimethylamino)butyl)-2-methoxybenzyl)-6-methyl-N^4-pentylpyrimidine-2,4-diamine]	3.98	–
CCCCCNc1nc(N)nc(C)c1Cc1ccc(CCCN(C)C)cc1 [Example 31, 5-(4-(3-(Dimethylamino)propyl)benzyl)-6-methyl-N^4-pentylpyrimidine-2,4-diamine]	100	–
CCCCCNc1nc(N)nc(C)c1Cc1ccc(OCCCO)cc1OC [Example 36, 3-(4-((2-Amino-4-methyl-6-(pentylamino)pyrimidin-5-yl)methyl)-3-methoxyphenoxy)propan-1-ol]	50.1	–
CCCCCNc1nc(N)nc(C)c1Cc1cccc(OCCCN(C)C)c1 [Example 25]	794	–
